Reference: PMC10140010 (Investigational New Drugs, 2023)
Values joined by “and” are separate entries in the source; they are usually repeats but may differ in a detail not shown here. Equal values may be shown once. “Also recorded” adds a separate entry of the source.

What was measured:
[1] = parameters: method as in PMID 35087031; conditions: 180 mg, once daily, patients; cited from earlier work
OAT3 [2] = test: Uptake inhibitor investigation in HEK293 cells expressing transporter; assay type: in vitro ADME
MATE2K = biological target: T1, MATE2K (Homo sapiens, UniProt Q86VL8); assay type: in vitro ADME
T1 construct: No ESHDG27; host or cells: HEK293

CYP2B6 = test: Hepatic enzyme induction in human hepatocytes (gene expression); assay type: in vitro ADME
BSEP = biological target: T2, BSEP (Homo sapiens, UniProt O95342); test: BSEP inhibitor investigation; assay type: in vitro ADME
T2 construct: host or cells: membrane vesicles ('Membrane capsule'), BSEP versus NC control, with ATP or AMP

OATP1B1 = biological target: T3, OATP1B1 (Homo sapiens, UniProt Q9Y6L6); test: Uptake inhibitor investigation in HEK293 cells expressing transporter; assay type: in vitro ADME
T3 construct: No ESH6G27; host or cells: HEK293
T3 sequence (Q9Y6L6 1-691): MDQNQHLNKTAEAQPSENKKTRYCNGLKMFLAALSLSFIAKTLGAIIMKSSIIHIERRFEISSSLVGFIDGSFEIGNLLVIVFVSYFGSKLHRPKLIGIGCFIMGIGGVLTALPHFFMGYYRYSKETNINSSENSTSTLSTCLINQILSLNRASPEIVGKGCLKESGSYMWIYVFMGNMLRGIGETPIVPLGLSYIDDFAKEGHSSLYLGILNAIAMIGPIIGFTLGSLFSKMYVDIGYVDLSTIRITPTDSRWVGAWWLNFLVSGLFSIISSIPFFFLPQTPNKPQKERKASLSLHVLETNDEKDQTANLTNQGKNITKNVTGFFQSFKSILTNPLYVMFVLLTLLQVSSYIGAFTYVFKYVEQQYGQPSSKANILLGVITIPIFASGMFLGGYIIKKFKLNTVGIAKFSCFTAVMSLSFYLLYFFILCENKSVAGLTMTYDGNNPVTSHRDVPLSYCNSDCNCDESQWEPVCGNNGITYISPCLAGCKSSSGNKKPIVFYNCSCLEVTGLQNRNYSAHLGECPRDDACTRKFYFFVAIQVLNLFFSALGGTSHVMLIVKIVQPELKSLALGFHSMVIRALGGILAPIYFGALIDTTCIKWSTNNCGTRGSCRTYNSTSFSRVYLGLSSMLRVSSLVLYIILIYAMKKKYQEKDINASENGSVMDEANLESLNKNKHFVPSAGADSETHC
Method: Using a stably transfected cell line of HEK293 expressing transporter OATP1B1, OATP1B3 or OCT2, formal substrate investigation tests were performed for three concentration gradients (30 µM, 3 µM, 0.3 µM) of iruplinalkib.

MRP2 = biological target: T4, MRP2 (Homo sapiens, UniProt Q92887); test: MRP2 inhibitor investigation; assay type: in vitro ADME
T4 construct: host or cells: membrane vesicles ('Membrane capsule'), MRP2 versus NC control, with ATP or AMP

BCRP = biological target: T5, BCRP (Homo sapiens, UniProt Q9UNQ0); test: ABC efflux transporter inhibitor test on Caco-2 cells (E3S efflux)
T5 sequence (Q9UNQ0 1-655): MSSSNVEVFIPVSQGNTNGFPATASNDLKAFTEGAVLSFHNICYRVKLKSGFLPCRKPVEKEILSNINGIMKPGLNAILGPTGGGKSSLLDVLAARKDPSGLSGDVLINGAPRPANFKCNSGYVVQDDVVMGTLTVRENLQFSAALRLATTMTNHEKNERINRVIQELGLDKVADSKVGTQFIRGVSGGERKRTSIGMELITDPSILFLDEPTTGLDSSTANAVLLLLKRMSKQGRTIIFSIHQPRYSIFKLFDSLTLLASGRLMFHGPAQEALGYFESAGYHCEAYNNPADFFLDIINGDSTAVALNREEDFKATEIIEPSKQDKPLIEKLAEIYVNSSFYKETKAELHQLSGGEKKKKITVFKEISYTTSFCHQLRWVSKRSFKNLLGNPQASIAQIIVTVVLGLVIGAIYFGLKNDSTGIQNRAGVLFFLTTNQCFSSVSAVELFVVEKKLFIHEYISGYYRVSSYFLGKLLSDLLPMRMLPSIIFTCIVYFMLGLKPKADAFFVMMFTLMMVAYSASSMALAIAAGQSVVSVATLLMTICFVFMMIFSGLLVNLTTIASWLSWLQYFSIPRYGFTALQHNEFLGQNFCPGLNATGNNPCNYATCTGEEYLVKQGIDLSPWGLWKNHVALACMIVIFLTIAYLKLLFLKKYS

OAT1 = test: Uptake inhibitor investigation in HEK293 cells expressing transporter; assay type: in vitro ADME
[3] = Plasma protein binding rate (dialysis); assay type: in vitro ADME
Method: At three test concentrations (0.2, 2 and 10 µM), the plasma protein binding rate of iruplinalkib is as follows (Fig. 3a). […] With the increase of concentration, the protein binding rates of iruplinalkib in rat plasma decreased gradually, showing a certain concentration dependence, and there was no concentration dependence of protein binding rate observed in other species plasma.

OAT3 [4] = test: Uptake substrate investigation in HEK293 cells expressing transporter
Source text: The engineered NIH-3T3 (CD74-ROS1 fusion gene) cells was obtained from Nanjing GenScript Biotechnology Co., Ltd. The engineered Ba/F3 (SLC34A2-ROS1 fusion gene) cell line was obtained from Kyinno Biotechnology (Beijing) Co., Ltd. The HCC-78 (SLC34A2-ROS1 fusion gene) cell line was purchased from Shanghai Hongshun Biotechnology Co., Ltd. The engineered NIH-3T3 (CD74-ROS1 fusion gene) cells was obtained from Nanjing GenScript Biotechnology Co., Ltd. The engineered HEK293 cell lines with OATP1B1 (Lot. No ESH6G27), OATP1B3 (Lot. No ESH7G27), OCT2 (Lot. No ESH9G27), OAT1 (Lot. No ESHCG27), OAT3 (Lot. […] No ESHDG27) were purchased from GenoMembrane and validated using the specific substrate for each transporter. All cells were cultured at 37℃ in a 5% CO2 atmosphere. Cell culture reagents were obtained from Life Technologies, Inc. See Supplemental Table 1 for details on the source of the cell lines and the media used.

[5] = human, HEK293 cells expressing OAT3, probe ATV, 1 μM, read-out: Inhibition rate
[6] = human, HEK293 cells expressing OATP1B1, probe ATV (atorvastatin), 1 μM, read-out: Inhibition rate
[7] = human, Caco-2 cells, probe E3S (10 µM)
[8] = human, HEK293 cells expressing OAT1, probe ATV, 1 μM, read-out: Inhibition rate
[9] = MOCK293, test substrate 10 μM, no inhibitor, OAT3 pre-test
[10] = OATP1B1-293 (so in the source), test substrate 10 μM, no inhibitor, OAT3 pre-test
[11] = transporter cells vs MOCK293, test substrate 10 μM, no inhibitor, OAT3 pre-test

T2 sequence (O95342 whole entry): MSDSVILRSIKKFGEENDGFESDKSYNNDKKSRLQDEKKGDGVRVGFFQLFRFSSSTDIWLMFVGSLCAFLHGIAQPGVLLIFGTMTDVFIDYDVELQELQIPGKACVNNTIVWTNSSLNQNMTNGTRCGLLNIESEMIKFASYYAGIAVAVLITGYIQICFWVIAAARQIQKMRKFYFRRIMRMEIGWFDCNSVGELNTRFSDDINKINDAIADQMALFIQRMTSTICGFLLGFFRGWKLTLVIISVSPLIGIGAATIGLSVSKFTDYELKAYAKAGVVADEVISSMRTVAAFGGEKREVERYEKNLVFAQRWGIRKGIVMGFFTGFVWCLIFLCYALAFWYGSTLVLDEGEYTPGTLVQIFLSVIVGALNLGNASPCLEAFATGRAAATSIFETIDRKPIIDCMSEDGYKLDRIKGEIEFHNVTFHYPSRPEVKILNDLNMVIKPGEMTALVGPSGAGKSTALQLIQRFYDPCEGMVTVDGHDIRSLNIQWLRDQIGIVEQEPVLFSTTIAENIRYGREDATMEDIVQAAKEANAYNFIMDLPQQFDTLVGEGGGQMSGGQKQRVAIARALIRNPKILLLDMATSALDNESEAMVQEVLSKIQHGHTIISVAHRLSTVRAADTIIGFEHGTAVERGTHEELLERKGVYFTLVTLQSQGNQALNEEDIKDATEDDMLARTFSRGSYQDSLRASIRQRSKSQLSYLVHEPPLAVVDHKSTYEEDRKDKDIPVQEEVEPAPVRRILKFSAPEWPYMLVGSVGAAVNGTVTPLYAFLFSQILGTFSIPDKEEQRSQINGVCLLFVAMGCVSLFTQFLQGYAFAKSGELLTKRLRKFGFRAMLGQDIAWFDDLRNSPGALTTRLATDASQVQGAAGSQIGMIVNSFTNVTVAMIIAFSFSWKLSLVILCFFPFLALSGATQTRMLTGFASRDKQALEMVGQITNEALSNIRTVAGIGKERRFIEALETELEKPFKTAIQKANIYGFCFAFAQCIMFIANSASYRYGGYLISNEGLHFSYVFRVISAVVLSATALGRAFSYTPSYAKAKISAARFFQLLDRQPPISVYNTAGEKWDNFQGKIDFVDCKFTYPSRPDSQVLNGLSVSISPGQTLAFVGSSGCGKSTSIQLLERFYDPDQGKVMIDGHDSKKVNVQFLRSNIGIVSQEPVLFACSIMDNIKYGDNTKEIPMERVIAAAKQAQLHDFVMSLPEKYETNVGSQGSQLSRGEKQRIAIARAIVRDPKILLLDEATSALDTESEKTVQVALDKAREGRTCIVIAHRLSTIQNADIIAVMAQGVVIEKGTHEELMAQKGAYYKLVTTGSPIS
T4 sequence (Q92887 whole entry): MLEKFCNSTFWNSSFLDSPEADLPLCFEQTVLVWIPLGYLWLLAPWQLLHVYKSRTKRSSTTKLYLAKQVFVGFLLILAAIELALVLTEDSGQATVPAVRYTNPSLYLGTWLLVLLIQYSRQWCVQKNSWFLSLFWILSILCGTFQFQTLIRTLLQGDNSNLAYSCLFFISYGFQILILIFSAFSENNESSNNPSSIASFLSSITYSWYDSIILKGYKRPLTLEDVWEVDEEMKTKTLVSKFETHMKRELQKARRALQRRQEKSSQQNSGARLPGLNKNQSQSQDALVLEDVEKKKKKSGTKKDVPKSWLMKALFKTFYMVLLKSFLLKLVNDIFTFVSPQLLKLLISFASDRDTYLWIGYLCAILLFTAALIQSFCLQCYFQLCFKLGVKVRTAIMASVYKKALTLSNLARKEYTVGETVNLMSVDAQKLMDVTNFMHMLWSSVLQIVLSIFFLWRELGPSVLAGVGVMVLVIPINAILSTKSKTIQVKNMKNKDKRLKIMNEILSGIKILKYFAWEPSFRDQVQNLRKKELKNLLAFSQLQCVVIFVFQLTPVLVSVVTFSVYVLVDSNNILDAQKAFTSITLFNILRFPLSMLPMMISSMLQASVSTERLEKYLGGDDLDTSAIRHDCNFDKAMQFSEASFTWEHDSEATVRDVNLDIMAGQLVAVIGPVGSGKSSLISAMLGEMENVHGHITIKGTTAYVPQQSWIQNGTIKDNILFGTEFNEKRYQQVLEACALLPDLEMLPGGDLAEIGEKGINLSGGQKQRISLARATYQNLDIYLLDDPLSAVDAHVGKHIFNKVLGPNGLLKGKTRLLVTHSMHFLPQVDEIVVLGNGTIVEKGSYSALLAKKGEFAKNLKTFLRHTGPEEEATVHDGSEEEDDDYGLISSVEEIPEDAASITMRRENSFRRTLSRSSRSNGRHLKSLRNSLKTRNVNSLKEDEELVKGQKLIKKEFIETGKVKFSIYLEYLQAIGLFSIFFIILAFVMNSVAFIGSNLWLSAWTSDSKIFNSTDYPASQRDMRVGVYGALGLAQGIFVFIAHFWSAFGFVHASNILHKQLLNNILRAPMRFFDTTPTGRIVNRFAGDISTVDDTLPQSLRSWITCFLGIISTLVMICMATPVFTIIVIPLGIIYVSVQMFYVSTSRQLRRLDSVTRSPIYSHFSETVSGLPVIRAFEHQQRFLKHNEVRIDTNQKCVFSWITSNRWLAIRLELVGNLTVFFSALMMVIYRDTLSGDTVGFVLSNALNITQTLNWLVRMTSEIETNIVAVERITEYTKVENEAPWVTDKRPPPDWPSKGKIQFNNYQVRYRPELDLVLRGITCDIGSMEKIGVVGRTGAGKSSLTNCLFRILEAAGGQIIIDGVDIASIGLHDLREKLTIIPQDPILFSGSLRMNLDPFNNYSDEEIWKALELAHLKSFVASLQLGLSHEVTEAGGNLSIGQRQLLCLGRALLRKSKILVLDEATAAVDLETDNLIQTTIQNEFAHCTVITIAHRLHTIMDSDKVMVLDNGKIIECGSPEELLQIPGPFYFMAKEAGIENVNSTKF
T1 sequence (Q86VL8 1-566 isoform Q86VL8-3): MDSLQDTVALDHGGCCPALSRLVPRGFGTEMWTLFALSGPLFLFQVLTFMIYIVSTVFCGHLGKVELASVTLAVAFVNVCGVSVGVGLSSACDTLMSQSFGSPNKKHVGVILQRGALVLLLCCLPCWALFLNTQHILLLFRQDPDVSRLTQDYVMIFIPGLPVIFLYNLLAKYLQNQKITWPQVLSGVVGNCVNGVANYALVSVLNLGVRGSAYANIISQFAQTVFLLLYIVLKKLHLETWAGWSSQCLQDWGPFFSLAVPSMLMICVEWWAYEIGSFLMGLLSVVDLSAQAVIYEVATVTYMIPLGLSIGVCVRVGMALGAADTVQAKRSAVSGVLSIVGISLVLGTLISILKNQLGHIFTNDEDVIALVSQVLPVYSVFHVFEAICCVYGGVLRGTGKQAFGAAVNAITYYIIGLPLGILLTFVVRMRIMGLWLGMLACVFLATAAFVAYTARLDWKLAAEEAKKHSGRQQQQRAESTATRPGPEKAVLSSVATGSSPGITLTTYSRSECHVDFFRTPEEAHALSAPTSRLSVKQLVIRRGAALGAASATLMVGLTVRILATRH

COc1cc(N2CCC3(CCN(C)CC3)CC2)ccc1Nc1ncc(Cl)c(Nc2ccccc2P(C)(C)=O)n1 [Iruplinalkib]
free steady-state average concentration (Cavg,ss) [1]: 127 nM
inhibitory effect on OAT3 (OAT3 [2]; HEK293): no significant inhibitory effect
inhibition at 0.5 μM (OAT3 [2]; [5]): 26.7%
inhibition at 5 μM (OAT3 [2]; [5]): 22.5%
inhibition at 50 μM (OAT3 [2]; [5]): 31.9%
inhibition of MATE2K (MATE2K): stronger inhibitor
inducer of CYP2B6 (CYP2B6; 10 µM, human hepatocytes from three donors): not an inducer
CYP2B6 gene expression, folds of expression (CYP2B6; donor 1, 0.1 µM): 0.798 fold
CYP2B6 gene expression, folds of expression (CYP2B6; donor 1, 1 µM): 1.36 fold
CYP2B6 gene expression, folds of expression (CYP2B6; donor 1, 10 µM): 2.62 fold
CYP2B6 gene expression, folds of expression (CYP2B6; donor 2, 0.1 µM): 0.862 fold
CYP2B6 gene expression, folds of expression (CYP2B6; donor 2, 1 µM): 0.926 fold
CYP2B6 gene expression, folds of expression (CYP2B6; donor 2, 10 µM): 4.02 fold
CYP2B6 gene expression, folds of expression (CYP2B6; donor 3, 0.1 µM): 0.526 fold
CYP2B6 gene expression, folds of expression (CYP2B6; donor 3, 1 µM): 1.13 fold
CYP2B6 gene expression, folds of expression (CYP2B6; donor 3, 10 µM): 0.602 fold
efflux inhibitor of BSEP (BSEP): not an efflux inhibitor
inhibition at 0.1 μM (BSEP; BSEP membrane capsules (membrane vesicles), ATP vs AMP, probe TCA, BSEP, substrate TCA 10 μM, inhibitor 0.1 μM, read-out: Inhibition rate): -25.4%
inhibition at 0.3 μM (BSEP; BSEP membrane capsules (membrane vesicles), ATP vs AMP, probe TCA, BSEP, substrate TCA 10 μM, inhibitor 0.3 μM, read-out: Inhibition rate): -10.7%
inhibition at 1 μM (BSEP; BSEP membrane capsules (membrane vesicles), ATP vs AMP, probe TCA, BSEP, substrate TCA 10 μM, inhibitor 1 μM, read-out: Inhibition rate): -26.7%
inhibition at 3 μM (BSEP; BSEP membrane capsules (membrane vesicles), ATP vs AMP, probe TCA, BSEP, substrate TCA 10 μM, inhibitor 3 μM, read-out: Inhibition rate): -11.8%
inhibition at 10 µM (BSEP; BSEP membrane capsules (membrane vesicles), ATP vs AMP, probe TCA, BSEP, substrate TCA 10 μM, inhibitor 10 μM, read-out: Inhibition rate): -10.5%
inhibition at 30 μM (BSEP; BSEP membrane capsules (membrane vesicles), ATP vs AMP, probe TCA, BSEP, substrate TCA 10 μM, inhibitor 30 μM, read-out: Inhibition rate): -0.09%
inhibition at 100 μM (BSEP; BSEP membrane capsules (membrane vesicles), ATP vs AMP, probe TCA, BSEP, substrate TCA 10 μM, inhibitor 100 μM, read-out: Inhibition rate): 26.3%
inhibition of OATP1B1 uptake activity (OATP1B1; HEK293): can inhibit the uptake activity
inhibition at 0.5 μM (OATP1B1; [6]): 26.5%
inhibition at 5 μM (OATP1B1; [6]): 28.9%
inhibition at 50 μM (OATP1B1; [6]): 67.8%
efflux inhibitor of MRP2 (MRP2): not an efflux inhibitor
inhibition at 0.1 μM (MRP2; probe CDCF 5 μM, MRP2, substrate CDCF 5 μM, inhibitor 0.1 μM, read-out: Inhibition rate): -7.3%
inhibition at 0.3 μM (MRP2; probe CDCF 5 μM, MRP2, substrate CDCF 5 μM, inhibitor 0.3 μM, read-out: Inhibition rate): -8.8%
inhibition at 1 μM (MRP2; probe CDCF 5 μM, MRP2, substrate CDCF 5 μM, inhibitor 1 μM, read-out: Inhibition rate): -4.5%
inhibition at 3 μM (MRP2; probe CDCF 5 μM, MRP2, substrate CDCF 5 μM, inhibitor 3 μM, read-out: Inhibition rate): -4.2%
inhibition at 10 µM (MRP2; probe CDCF, MRP2, substrate CDCF 5 μM, inhibitor 10 μM, read-out: Inhibition rate): -3.8%
inhibition at 30 μM (MRP2; probe CDCF, MRP2, substrate CDCF 5 μM, inhibitor 30 μM, read-out: Inhibition rate): -2.8%
inhibition at 100 μM (MRP2; probe CDCF, MRP2, substrate CDCF 5 μM, inhibitor 100 μM, read-out: Inhibition rate): -7.3%
BCRP inhibitor (BCRP; Caco-2): BCRP inhibitor
inhibition at 0.1 μM (BCRP; [7]): -11.1%
inhibition at 0.3 μM (BCRP; [7]): 37.7%
inhibition at 1 μM (BCRP; [7]): 8.3%
inhibition at 3 μM (BCRP; [7]): 50.9%
inhibition at 10 µM (BCRP; [7]): 97.2%
inhibition at 30 μM (BCRP; [7]): 26.3%
inhibitor of OAT1 (OAT1; HEK293): can not be its inhibitor
inhibition at 0.5 μM (OAT1; [8]): 26.7%
inhibition at 5 μM (OAT1; [8]): 22.5%
inhibition at 50 μM (OAT1; [8]): 31.9%
plasma protein binding rate ([3]; 0.2 µM, SD rats plasma): high protein binding rate
plasma protein binding rate ([3]; 0.2, 2 and 10 µM, Beagle dogs plasma): medium protein binding rate
plasma protein binding rate ([3]; 0.2, 2 and 10 µM, CD-1 mice plasma): medium protein binding rate
plasma protein binding rate ([3]; 0.2, 2 and 10 µM, Macaca fascicularis plasma): medium protein binding rate
plasma protein binding rate ([3]; 0.2, 2 and 10 µM, SD rats plasma): medium protein binding rate
plasma protein binding rate ([3]; 0.2, 2 and 10 µM, human plasma): medium protein binding rate; also recorded: moderate
uptake substrate of OAT3 (OAT3 [4]; HEK293): not an uptake substrate
Uptake transport activity, Mean (OAT3 [4]; [9]): 344.0 pmol/mg protein/min
Uptake transport activity, Repeat 1 / Repeat 2 (OAT3 [4]; [9]): 309.8 pmol/mg protein/min and 378.3 pmol/mg protein/min
Uptake transport activity, Mean (OAT3 [4]; [10]): 88.57 pmol/mg protein/min
Uptake transport activity, Repeat 1 / Repeat 2 (OAT3 [4]; [10]): 81.45 pmol/mg protein/min and 95.69 pmol/mg protein/min
Ratio of uptake transit activity (OAT3 [4]; [11]): 0.92
Uptake transport activity, Net value (OAT3 [4]; [11]): -255.5 pmol/mg protein/min
